From patent publication US8889840B2, “Vascular leakage inhibitor” (Industry-Academic Cooperation Foundation, Yonsei University, priority 2009, dated 2014)
Entries after “also recorded” stand apart in the source; their conditions may differ.

Columns and labels:
HRECs [1] = assay: VEGF-induced actin stress fibers in HRECs, rhodamine phalloidin staining; type: cell-based, human; details: 10 μg/mL 1 hour, then 20 ng/mL VEGF 1 hour
Procedure: Confluent HRECs were treated with 10 μg/mL Sac0601 or Sac0504 for 1 hour and then with 20 ng/mL VEGF for 1 hour. Subsequently, the cells were fixed at room temperature for 20 minutes with 4% paraformaldehyde and washed 3 times with PBS (pH 7.4). Then, the cells were permeabilized with 0.1% Triton X-100/PBS and reacted with 0.1 mg/mL rhodamine phalloidin (Molecular Probes) for 1 hour. Then, the cells were observed under a fluorescence microscope (Olympus). […] The analysis of actin cytoskeleton was conducted also for the compounds synthesized in Synthesis Example 5. Both Sac0904 and Sac0902 exerted effects in a concentration-dependent manner on the actin cytoskeleton which is closely related with vascular permeability (FIG. 7c).

HRECs [2] = assay: Permeability of HRECs on transwell filter, labelled sucrose; type: cell-based, human; details: 10 μg/mL 60 minutes, with or without 20 ng/mL VEGF
Procedure: HRECs were seeded on a transwell filter. After reaching confluency, the cells were pretreated with Sac0601 (FIG. 10a) and Sac0504 (FIG. 10b) for 60 minutes before treating with 20 ng/ml. VEGF (1 hr). The permeability of HRECs was determined by measuring radiation of […] (1 μCi/μL) diffused below the transwell using a liquid scintillation counter.
The effect of Sac0601 and Sac0504 on vascular permeability was analyzed. HRECs were seeded on a transwell filter (Corning Costar). After reaching confluency, the cells were cultured in M199 medium containing 1% FBS for 3 hours and treated with 10 μg/mL. Sac0601 (FIG. 10a) or Sac0504 (FIG. 10b) for 60 minutes, with or without pretreatment with 20 ng/mL VEGF for 60 minutes. Then, [^3H]sucrose (1 μCi [0.037 MBq.]/μL or 50 μL (0.8 μCi [0.0296 MBq])/mL, Amersham Pharmacia) were added. 30 minutes later, radiation diffused below the transwell was measured using a liquid scintillation counter (Wallac, PerkinElmer). Measurement was made at least four locations.

[3] = system: diabetic mouse (DM) model; assay: Retinal vascular permeability in diabetic mouse (DM) model, FITC-dextran; type: in vivo, C57/BL6 mouse; details: streptozotocin diabetic mouse, 10 μg into the vitreous body, 24 hours
Procedure: 10 μg of Sac0601 or 10 μg of Sac0504 was injected into the vitreous body of one eye of a diabetic mouse. 24 hours after the injection, 100 μL of FITC-dextran (30 mg/mL in filtered […]) was injected into the left ventricle. Then, the retina was observed under an optical microscope (FIG. 11a) and the fluorescence intensity was quantified (FIG. 11b).
For in vivo analysis of the effect of the synthesized Rk1 derivatives on increased vascular permeability in diabetic retinopathy, a diabetic mouse (DM) model was made by injecting streptozotocin to C57/BL6 mouse. Sac 0601 or Sac 0504 (10 μg) was injected into the vitreous body of the mouse. 24 hours later, 40-kDa FITC-dextran (30 mg/mL in PBS, Sigma) was injected into the left ventricle. After waiting for about 2 minutes for circulation of the tracer, the eyes were taken out and fixed immediately in 4% PFA. Then, the retina was taken out and observed under an optical microscope.

[4] = system: human retinal endothelial cells (HRECs); assay: Serum depletion-induced apoptosis of HRECs, MTT assay and cell morphology; type: cell-based; details: serum-free medium, 0.1-10 μg/mL
Procedure: HRECs (3×10^4 cells/well) were seeded on a 24-well plate in M199 medium containing 20% fetal bovine serum. The next day, the cells were transferred to a medium containing […] Sac0601 (FIG. 4a) or 0.1-10 μg/mL Sac0504 (FIG. 4b). Cell viability was determined by MTT assay 48 hours later. FIGS. 5a-5c show the result of observing cell morphologies.
Human umbilical vein endothelial cells (HUVECs) and human retinal endothelial cells (HRECs) purchased from Cell Systems (USA) were seeded on a 100-mm culture dish in M199 medium (Life Technologies, USA) containing 20% (w/v) fetal bovine serum (FBS, HyClone, Canada), 100 units/mL penicillin (Invitrogen, USA), 100 μg/mL streptomycin (invitrogen, USA), 3 ng/mL basic fibroblast growth factor (bFGF, Upstate Biotechnology, USA) and 5 units/mL heparin and cultured in a 5% CO2 incubator at 37° C.
Also, HRECs were treated with the compounds synthesized in Synthesis Example 5 and MIT assay was performed 48 hours later in the same manner as described above.
Also, the acid compound wherein the methyl ester formed by the introduction of the ester group was hydrolyzed was synthesized to provide improved water solubility and activity. MYT assay was performed for the compounds synthesized in Synthesis Example 6 in the same manner as described above 48 hours after treatment.
Their ability of inhibiting apoptosis was confirmed again for HRECs. HRECs (3×10^4 cells/well) were seeded on a 24-well plate in M199 medium (1 mL) containing 20% fetal bovine serum, Next day, the cells were transferred to serum-free M199 medium containing 0.1-10 μg/ml. Sac060.1 (FIG. 4a) or 0.1-10 μg; mL Sac0504 (FIG. 4b). Cell viability was determined by MTF assay in the same manner as in Test Example 1.
Their ability of inhibiting apoptosis was confirmed again for HRECs.

occludin = assay: Occludin western blotting of HREC lysate; type: cell-based, human; details: HRECs, pretreatment 60 minutes, then 20 ng/mL VEGF 1 hour
Procedure: In FIG. 8b, confluent HRECs were pretreated with Sac0601 (10 μg/mL) for 60 minutes before treating with 20 ng/mL VEGF (1 hr). Then, cell lysate was subjected to western blotting using anti-occludin antibody.
Confluent HRECs were treated with 10 μg/mL Sac0601 (FIG. 8a, panel A) or Sac0504 (FIG. 8a, panel B) for 1 hour and then with 20 ng/mL. VEGF for 1 hour. Subsequently, the cells were fixed at room temperature for 20 minutes with 4% paraformaldehyde and permeabilized with 0:1% Triton X-100/PBS. Then, the cells were incubated in PBS blocking solution containing 5% normal goat serum and 0.05% Tween-20. The cells were then reacted with anti-occludin antibody (Zymed Laboratories Inc.). The result was visualized with fluorescein-conjugated anti-mouse antibody (Vector Lab.). Also, western blotting was conducted for the cell lysate. The cell lysate was fractionated with SDS-PAGE and then transferred to polyvinyl difluoride membrane. The blocked membrane was reacted with anti-occludin antibody (Zymed Laboratories Inc.) and the immune response band was visualized with the chemiluminescence reagent obtained from Amersham Biosciences, Inc.

C57/BL6 mouse = assay: Vascular leakage induced by VEGF in mouse retina, FITC-dextran; type: in vivo; details: VEGF 50 ng and compound 10 μg into the vitreous body, 24 hours
Procedure: VEGF (50 ng) and Sac0601 (10 μg) were injected into the vitreous body of C57/BL6 mouse. An excipient (DMSO) was injected into the other eye. 24 hours after the injection, 100 μL FITC-dextran (30 mg/mL in PBS, Sigma) was injected into the left ventricle. After waiting for about 2 minutes for circulation of the tracer, the eyes were taken out and fixed immediately in 4% PFA, Then, the retina was taken out and observed under an optical microscope.

Row | Compound | formation of actin stress fibers induced by VEGF (HRECs [1]) | formation of cortical actin ring structures (HRECs [1]) | permeability of the vascular endothelial cells (HRECs [2]) | retinal vascular permeability induced in the DM [3] | ability of protecting retinal vascular endothelial cells from apoptosis induced by the removal of serum (MTT) [4] | occludin (western blotting) (occludin) | vascular leakage induced by VEGF (C57/BL6 mouse)
1 | CC(C)CCC[C@@H](C)[C@H]1CC[C@H]2[C@@H]3CC=C4C[C@@H](OC5CCCCO5)CC[C@]4(C)[C@H]3CC[C@]12C (stereo partly drawn) [Sac0504] | inhibited the formation of actin stress fibers induced by VEGF | increased the formation of cortical actin ring structures | inhibiting permeability of the vascular endothelial cells | partially inhibits; also recorded: only limitedly | have the ability of protecting the retinal vascular endothelial cells from apoptosis |  | 
2 | CC(=O)OCC1OC(OC2CCC3(C)C(=CCC4C3CCC3(C)C(C(C)CCCC(C)C)CCC43)C2)C=CC1OC(C)=O (stereo not drawn) [Sac0601] | inhibited the formation of actin stress fibers induced by VEGF | increased the formation of cortical actin ring structures | inhibiting permeability of the vascular endothelial cells | completely inhibits; also recorded: very effectively | have the ability of protecting the retinal vascular endothelial cells from apoptosis | results in decrease of occludin | greatly decreases
